This is an account of results in ChEMBL document CHEMBL1201862, “PubChem BioAssay data set” (2004).

Some test systems named below: EKVX; NCI-H226; SN12C; M14; SF-268; A498; RXF 393; HOP-62; MOLT-4; M19-MEL; SK-OV-3; SW-620; K562; NCI-H522; SK-MEL-5; 786-0; MDA-N; SNB-75; ACHN; SR.
What all share (experiment): NCI anticancer screen, dose series, 48 h

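Assay format: 96-well plates, 48-hour exposure. Abbreviation: GI50, concentration required for 50% inhibition of growth.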 Active and inactive are the calls of the source. No stated cut-off is given here; in the data, active = GI50 up to about 1.1 µM and inactive = higher.

As to `CNC(=O)N(C)/N=N/CCCl`, the GI50 with EKVX, in the assay with NCI-H226, in the assay on SN12C, with M14, in the assay on SF-268 and with A498 was > 100 µM (inactive) each time. For the same compound, the GI50 with RXF 393, with HOP-62, with MOLT-4, in the assay on M19-MEL, in the assay with SK-OV-3 and with SW-620 was > 100 µM (inactive) each time. The GI50 in the assay with K562, with NCI-H522, in the assay on SK-MEL-5, in the assay on 786-0, in the assay with MDA-N and in the assay on SNB-75 was > 100 µM (inactive) throughout. Moreover, the GI50 with ACHN and with SR was > 100 µM (inactive) each time.
As for `C/C1=C\[C@H](C)C[C@H](C)OC(=O)C[C@H](c2ccc(O)cc2)NC(=O)[C@@H](Cc2c(Br)[nH]c3ccccc23)N(C)C(=O)[C@H](C)NC(=O)[C@@H](C)C1` [JASPAMIDE], the GI50 is 0.275 µM (active) with EKVX; 0.245 µM (active) in the assay with NCI-H226; 0.361 µM (active) in the assay on SN12C; 0.211 µM (active) in the assay on M14; 0.139 µM (active) in the assay with SF-268; 0.0224 µM (active) with A498. The GI50 is 0.0369 µM (active) with RXF 393; 0.329 µM (active) in the assay with HOP-62; 0.682 µM (active) with MOLT-4; 0.789 µM (active) with M19-MEL; 0.185 µM (active) with SK-OV-3; 0.152 µM (active) with SW-620. The GI50 in the assay with K562 was 0.667 µM (active); with NCI-H522 it was 0.203 µM (active); in the assay on SK-MEL-5 it was 0.158 µM (active); with 786-0, 0.128 µM (active); in the assay with MDA-N it was 0.0834 µM (active); in the assay with SNB-75 it was 0.084 µM (active). The results for the GI50 in the assay with ACHN and in the assay with SR were 0.199 µM (active) and 0.0578 µM (active), respectively.
Consider `COC(=O)/C(=N\O)C(C(=O)C=C(C)C)C(=O)C(=O)Nc1ccccc1C` (stereo not drawn), for which the GI50 with EKVX, with NCI-H226, in the assay on SN12C, in the assay on M14, in the assay with SF-268 and in the assay with A498 was > 100 µM (inactive) throughout. Further, the GI50 in the assay with RXF 393, with HOP-62, in the assay on MOLT-4, in the assay on M19-MEL, in the assay with SK-OV-3 and in the assay on SW-620 was > 100 µM (inactive) throughout. Also, the GI50 in the assay with K562, in the assay on NCI-H522, with SK-MEL-5, in the assay on 786-0, with SNB-75 and in the assay with ACHN was > 100 µM (inactive) throughout. Also, in the assay on SR, the GI50 is > 100 µM (inactive).
Consider `NC1=NN(c2ccccc2)C(=O)C1C(=O)C(=O)Nc1ccc(Cl)c(Cl)c1` (stereo not drawn), for which the GI50 in the assay on EKVX, in the assay on NCI-H226, in the assay on SN12C, in the assay with M14, in the assay on SF-268 and with A498 was > 100 µM (inactive) throughout. The GI50 with RXF 393, in the assay with HOP-62, in the assay with MOLT-4, in the assay on M19-MEL, in the assay on SK-OV-3 and in the assay on SW-620 was > 100 µM (inactive) in each case. Further, the GI50 was 32 µM (inactive) in the assay with K562; 84.9 µM (inactive) with NCI-H522; > 100 µM (inactive) with SK-MEL-5; > 100 µM (inactive) with 786-0; 37.2 µM (inactive) with SNB-75; 84.5 µM (inactive) in the assay on ACHN. Also, the GI50 in the assay with SR is > 100 µM (inactive).
